Laboratory results reported in the supplement of paper PMC10307832.

How the values were obtained:
Test in all cases: relative viability (nuclei count vs DMSO), 5 days (fraction); higher = more cells survive
[1] = compound: O[C@H]1CC[C@H](Nc2ncc3nc(Nc4c(F)cc(F)cc4F)n([C@H]4CCOC4)c3n2)CC1 [Tanzisertib] + CCNC(=O)c1noc(-c2cc(C(C)C)c(O)cc2O)c1-c1ccc(CN2CCOCC2)cc1 [Luminespib] (partner 0.01 µM)
In short: (§1)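 Nuclei were stained with Hoechst during a one-step fixation (final 0.05% Triton X-100, 1% formaldehyde, 1 ug/ml Hoechst) carried out 5 days after dosing, then counted on 4× images. The cells, lung cancer lines in 1536-well plates, had been dosed by pin tool the day after seeding with one drug alone or a fixed anchor-drug dose plus five library-drug doses (not always all listed) in √10 steps. Relative viability is the nuclei count in treated wells divided by that in vehicle wells, and each value is the median of duplicate plates.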

[2] = compound: O[C@H]1CC[C@H](Nc2ncc3nc(Nc4c(F)cc(F)cc4F)n([C@H]4CCOC4)c3n2)CC1 [Tanzisertib] + N=C(N)NC(=N)NCCc1ccccc1 [Phenformin] (partner 250 µM)
In short: as §1

[3] = compound: C[C@@H](N)c1ccc(C(=O)Nc2ccnc3[nH]ccc23)cc1 + CCNC(=O)c1noc(-c2cc(C(C)C)c(O)cc2O)c1-c1ccc(CN2CCOCC2)cc1 [Luminespib] (partner 0.01 µM)
In short: as §1

[4] = compound: O[C@H]1CC[C@H](Nc2ncc3nc(Nc4c(F)cc(F)cc4F)n([C@H]4CCOC4)c3n2)CC1 [Tanzisertib] + C[C@@H](Oc1cc(-c2cnn(C3CCNCC3)c2)cnc1N)c1c(Cl)ccc(F)c1Cl [Crizotinib] (partner 1 µM)
In short: as §1

| Cell Line | relative viability ([1]; first compound 0.08 µM) | relative viability ([1]; first compound 0.253 µM) | relative viability ([1]; first compound 0.8 µM) | relative viability ([1]; first compound 2.53 µM) | relative viability ([1]; first compound 8 µM) | relative viability ([2]; first compound 0.08 µM) | relative viability ([2]; first compound 0.253 µM) | relative viability ([2]; first compound 0.8 µM) | relative viability ([2]; first compound 2.53 µM) | relative viability ([2]; first compound 8 µM) | relative viability ([3]; first compound 0.04 µM) | relative viability ([3]; first compound 0.1265 µM) | relative viability ([3]; first compound 0.4 µM) | relative viability ([3]; first compound 1.265 µM) | relative viability ([3]; first compound 4 µM) | relative viability ([4]; first compound 0.08 µM) | relative viability ([4]; first compound 0.253 µM) | relative viability ([4]; first compound 0.8 µM) | relative viability ([4]; first compound 2.53 µM) | relative viability ([4]; first compound 8 µM) |
| --- | --- | --- | --- | --- | --- | --- | --- | --- | --- | --- | --- | --- | --- | --- | --- | --- | --- | --- | --- | --- |
| NCI-H1944 | 0.858 | 0.84 | 0.749 | 0.658 | 0.73 | 0.23 | 0.197 | 0.21 | 0.198 | 0.203 | 0.857 | 0.722 | 0.753 | 0.746 | 0.6 | 1.23 | 1.03 | 1.11 | 1.14 | 0.949 |
| NCI-H2023 | 0.966 | 0.762 | 0.826 | 0.628 | 0.696 | 0.427 | 0.37 | 0.407 | 0.411 | 0.404 | 1 | 0.881 | 0.832 | 0.689 | 0.543 | 0.568 | 0.651 | 0.684 | 0.607 | 0.567 |
| NCI-H1755 | 0.415 | 0.51 | 0.473 | 0.374 | 0.547 | 0.692 | 0.612 | 0.595 | 0.649 | 0.632 | 0.384 | 0.426 | 0.69 | 0.397 | 0.26 | 0.85 | 0.821 | 0.863 | 0.839 | 0.777 |
| NCI-H23 | 0.262 | 0.227 | 0.203 | 0.228 | 0.199 | 0.808 | 0.808 | 0.84 | 0.795 | 0.668 | 0.198 | 0.235 | 0.203 | – | 0.21 | 0.568 | 0.553 | 0.554 | 0.601 | 0.598 |
| ABC-1 | 0.777 | 0.428 | 0.518 | 0.735 | 0.944 | 0.242 | 0.251 | 0.226 | 0.211 | 0.218 | 1 | 0.678 | 0.529 | 0.553 | 0.811 | 1.4 | 1.07 | 1.29 | 1.26 | 1.26 |
| 201T | 1.09 | 1.06 | 1.06 | 1.03 | 1.05 | 0.454 | 0.501 | 0.477 | 0.459 | 0.386 | 1.02 | 1.02 | 1.08 | 1.14 | 1.14 | 1.04 | 1.04 | 1.02 | 1.05 | 0.996 |
| NCI-H1734 | 0.208 | 0.206 | 0.214 | 0.197 | 0.203 | 0.469 | 0.406 | 0.356 | 0.387 | 0.334 | 0.2 | 0.209 | 0.193 | 0.187 | 0.195 | 0.743 | 0.658 | 0.72 | 0.738 | 0.599 |
| NCI-H520 | 0.255 | 0.253 | 0.218 | 0.227 | 0.202 | 0.734 | 0.662 | 0.599 | 0.609 | 0.663 | 0.192 | 0.188 | 0.24 | 0.218 | 0.213 | 0.862 | 0.821 | 0.745 | 0.68 | 0.863 |
| NCI-H1650 | 0.233 | 0.215 | 0.206 | 0.2 | 0.196 | 0.317 | 0.425 | 0.407 | 0.307 | 0.314 | 0.2 | 0.191 | 0.177 | 0.17 | 0.195 | 1 | 1.06 | 1.07 | 0.914 | 0.803 |
| NCI-H1355 | 0.77 | 0.697 | 0.805 | 0.725 | 0.628 | 0.517 | 0.44 | 0.503 | 0.472 | 0.431 | 0.759 | 0.72 | 0.807 | 0.66 | 0.625 | 1.12 | 1.11 | 1.06 | 1.08 | 1.06 |
| NCI-H1915 | 0.875 | 0.839 | 0.808 | 0.789 | 0.776 | 0.4 | 0.355 | 0.364 | 0.365 | 0.291 | 0.825 | 0.817 | 0.869 | – | 0.629 | 0.929 | 0.91 | 0.862 | 0.904 | 0.856 |
| BEN | 0.352 | 0.77 | 0.814 | 0.382 | 0.209 | 0.254 | 0.235 | 0.275 | 0.266 | 0.255 | 0.369 | 0.332 | 0.44 | 0.29 | 0.286 | 0.846 | 0.775 | 0.914 | 0.845 | 0.878 |
| NCI-H3122 | 0.134 | 0.0952 | 0.125 | 0.0854 | 0.103 | 0.398 | 0.423 | 0.378 | 0.426 | 0.314 | 0.0997 | 0.0955 | 0.113 | 0.162 | 0.124 | 0.302 | 0.306 | 0.288 | 0.292 | 0.293 |
| SK-MES-1 | 0.718 | 0.692 | 0.698 | 0.75 | 0.499 | 0.683 | 0.637 | 0.663 | 0.645 | 0.632 | 0.834 | 0.796 | 0.752 | 0.585 | 0.714 | 0.986 | 0.97 | 0.961 | 0.965 | 0.916 |
| HOP-62 | 0.966 | 0.924 | 0.886 | 0.91 | 0.883 | 0.758 | 0.709 | 0.671 | 0.671 | 0.729 | 0.732 | 0.812 | 0.94 | 0.893 | 0.817 | 0.945 | 0.964 | 1 | 1.05 | 0.824 |
| NCI-H2347 | 0.494 | – | 0.581 | 0.571 | 0.511 | 0.445 | – | 0.434 | 0.306 | 0.376 | 0.469 | 0.308 | 0.784 | – | 0.795 | 0.675 | 0.765 | 0.739 | 0.945 | 0.827 |
